From the supplement of paper PMC11451515

Test system: SEM cells
Test: cell viability relative to DMSO control; higher = less cytotoxic
Details: 48 h
Outline: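 In 1536-well plates, 5 μl of leukemia cells were seeded per well: 500 cells/well for NOMO1 or SEM and 1000 cells/well for P12-Ichikawa. Each line had first been adapted for at least four passages in each medium. Library compounds in DMSO were pin-dosed at 11 threefold concentrations between 47 μM and 0.79 nM, and CellTiter-Glo One luminescence was read after 48 h at 37°C. Viability is a per-plate percentage relative to DMSO wells, with cell-free wells as background.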

[1] = HPLM + 10% dialyzed FBS, 0.000781 µM
[2] = HPLM + 10% dialyzed FBS, 0.00234 µM
[3] = HPLM + 10% dialyzed FBS, 0.00702 µM
[4] = HPLM + 10% dialyzed FBS, 0.0211 µM
[5] = HPLM + 10% dialyzed FBS, 0.0632 µM
[6] = HPLM + 10% dialyzed FBS, 0.19 µM
[7] = HPLM + 10% dialyzed FBS, 0.569 µM
[8] = HPLM + 10% dialyzed FBS, 1.71 µM
[9] = HPLM + 10% dialyzed FBS, 5.12 µM
[10] = HPLM + 10% dialyzed FBS, 15.4 µM
[11] = HPLM + 10% dialyzed FBS, 46.1 µM
[12] = RPMI 5 mM glucose + 10% FBS, 0.000781 µM
[13] = RPMI 5 mM glucose + 10% FBS, 0.00234 µM
[14] = RPMI 5 mM glucose + 10% FBS, 0.00702 µM
[15] = RPMI 5 mM glucose + 10% FBS, 0.0211 µM
[16] = RPMI 5 mM glucose + 10% FBS, 0.0632 µM
[17] = RPMI 5 mM glucose + 10% FBS, 0.19 µM
[18] = RPMI 5 mM glucose + 10% FBS, 0.569 µM
[19] = RPMI 5 mM glucose + 10% FBS, 1.71 µM
[20] = RPMI 5 mM glucose + 10% FBS, 5.12 µM
[21] = RPMI 5 mM glucose + 10% FBS, 15.4 µM
[22] = RPMI 5 mM glucose + 10% FBS, 46.1 µM
[23] = RPMI 5 mM glucose + 10% dialyzed FBS, 0.000781 µM
[24] = RPMI 5 mM glucose + 10% dialyzed FBS, 0.00234 µM
[25] = RPMI 5 mM glucose + 10% dialyzed FBS, 0.00702 µM
[26] = RPMI 5 mM glucose + 10% dialyzed FBS, 0.0211 µM
[27] = RPMI 5 mM glucose + 10% dialyzed FBS, 0.0632 µM
[28] = RPMI 5 mM glucose + 10% dialyzed FBS, 0.19 µM
[29] = RPMI 5 mM glucose + 10% dialyzed FBS, 0.569 µM
[30] = RPMI 5 mM glucose + 10% dialyzed FBS, 1.71 µM
[31] = RPMI 5 mM glucose + 10% dialyzed FBS, 5.12 µM
[32] = RPMI 5 mM glucose + 10% dialyzed FBS, 15.4 µM
[33] = RPMI 5 mM glucose + 10% dialyzed FBS, 46.1 µM

SMILES	cell viability [1]	cell viability [2]	cell viability [3]	cell viability [4]	cell viability [5]	cell viability [6]	cell viability [7]	cell viability [8]	cell viability [9]	cell viability [10]	cell viability [11]	cell viability [12]	cell viability [13]	cell viability [14]	cell viability [15]	cell viability [16]	cell viability [17]	cell viability [18]	cell viability [19]	cell viability [20]	cell viability [21]	cell viability [22]	cell viability [23]	cell viability [24]	cell viability [25]	cell viability [26]	cell viability [27]	cell viability [28]	cell viability [29]	cell viability [30]	cell viability [31]	cell viability [32]	cell viability [33]
O=C(CS(=O)Cc1ccco1)NC/C=C\COc1cc(CN2CCCCC2)ccn1 (configuration not stated)	78.7%	86.2%	89.4%	96.9%	93.8%	99.5%	102%	96.7%	102%	100%	97.3%	86%	91.3%	90.7%	87.1%	96.8%	95.5%	107%	106%	93.6%	102%	103%	81.5%	93.7%	98.4%	75.9%	97.1%	88.4%	106%	97.3%	110%	99.8%	93.9%
ClC1=CC=C2N/C3=N/C(=O)CN3CC2=C1Cl	123%	124%	120%	134%	126%	119%	132%	138%	125%	115%	105%	–	–	–	–	–	–	–	–	–	–	–	–	–	–	–	–	–	–	–	–	–	–
C[C@@H]1O[C@@H](O[C@H]2C[C@@H](O)[C@]3(CO)[C@H]4[C@H](O)C[C@]5(C)[C@@H](C6=CC(=O)OC6)CC[C@]5(O)[C@@H]4CC[C@]3(O)C2)[C@H](O)[C@H](O)[C@H]1O	85.4%	99.6%	93.6%	85.8%	17.8%	9.08%	7.03%	5.97%	7.25%	6.63%	6.23%	109%	113%	114%	106%	109%	14.9%	7.93%	6.18%	8%	7.1%	6.23%	104%	100%	97.3%	98.3%	60%	12.6%	7.03%	6.93%	8.44%	7.07%	7.5%
O=C(O)CCCCC(CCSCc1ccccc1)SCc1ccccc1 (configuration not stated)	87.7%	116%	111%	110%	104%	115%	113%	131%	111%	119%	102%	106%	102%	91.5%	101%	118%	124%	110%	121%	115%	107%	99.6%	100%	106%	121%	138%	116%	117%	108%	125%	117%	108%	93.5%
O=C(CCc1ccc(O)cc1)c1c(O)cc(O)cc1O	74%	79.7%	92%	95.5%	89.1%	95.9%	115%	94.5%	57%	107%	100%	80.8%	102%	102%	85.6%	86.3%	97.7%	105%	99.4%	40.2%	105%	106%	96.5%	90.9%	89.7%	90%	83.6%	105%	88.1%	91%	62.3%	102%	102%
c1ccc2c(Cc3c[nH]c4ccccc34)c[nH]c2c1	93.8%	95.3%	97.5%	89.4%	88.7%	82.2%	73.8%	80.3%	78.9%	62.1%	18.6%	106%	92.9%	96%	104%	90.3%	81.1%	73.8%	78.6%	76.4%	71.5%	14.6%	103%	99%	109%	101%	73.2%	82.7%	72.3%	74.7%	68.3%	56.1%	15.8%
OC[C@H]1O[C@H](C[C@@H]1O)N2\C=C(F)/C(=O)NC2=O	124%	113%	120%	86.7%	55.3%	47.7%	46.1%	44.4%	35.1%	31.5%	12.1%	119%	115%	121%	121%	130%	102%	86.9%	80.3%	33.9%	40.6%	16.3%	110%	92.8%	88.5%	40.5%	35.1%	26.5%	31.1%	25.6%	23.3%	18.1%	10.8%
CC[S+](=O)([O-])Nc1ccc2c(c1)/C(=C(/Nc1ccc(CN3CCCCC3)cc1)c1ccccc1)C(=O)N2	117%	112%	108%	95.5%	71.3%	27.8%	23.9%	19.4%	18.5%	5.02%	3.36%	110%	108%	111%	108%	89.1%	17.9%	18.1%	13.8%	10%	3.47%	2.27%	118%	110%	126%	103%	89.7%	18.5%	16.3%	13.6%	11.5%	6.15%	2.34%
